Reference: patent publication EP0114002B1, “Benzothiopyrano(4,3,2,-cd)indazoles, their pharmaceutical compositions and methods for their production” (WARNER-LAMBERT COMPANY, priority 1983, dated 1984)
Where a name gives a salt, the structure may show the parent alone. Read-outs that look alike come from different tables or passages of the source.

Assays:
[1] = system: lymphocytic leukemia P388; assay: in vivo lymphocytic leukemia P388 test; parameters: species or system mice; conditions: Mus musculus, P388, ip, 120 h, read-out: P388 in vivo T/C × 100; for response vs control in vivo at 25 mg/kg: Dose 25.00 mg/kg intraperitoneally once daily for five days; for response vs control in vivo at 6.25 mg/kg: Dose 6.25 mg/kg intraperitoneally once daily for five days; for response vs control in vivo at 12.5 mg/kg: Dose 12.50 mg/kg intraperitoneally once daily for five days; for response vs control in vivo at 100 mg/kg: Dose 100.00 mg/kg intraperitoneally once daily for five days; for response vs control in vivo at 3.12 mg/kg: Dose 3.12 mg/kg intraperitoneally once daily for five days; for response vs control in vivo at 50 mg/kg: Dose 50.00 mg/kg intraperitoneally once daily for five days
Experimental: Another test protocol is the in vivo lymphocytic leukemia P388 test. The animals used are either male or female CD2F, mice. There are six or seven animals per test group. The tumor transplant is by intraperitoneal injection of dilute ascitic fluid containing cells of lymphocytic leukemia P388. The test compounds are administered intraperitoneally once daily for five consecutive days at various doses following tumor inoculation. The animals are weighed and survivors are recorded on a regular basis for 30 days. A compound is designated "toxic" if, at a given dose, all animals died prior to four days after the first injection of drug. A ratio of survival time for treated (T)/control (C) animals is calculated. A criterion for efficacy is a ratio T/C times 100 greater than or equal to 125. See Cancer Chemotherapy Reports, Part 3, 3; 1 (1972) for a comprehensive discussion of the protocol.

L1210 cells = assay: L1210 murine leukemia cell growth inhibition in vitro; format: cell-based; conditions: Mus musculus, 72 h
Experimental: Another test protocol uses L1210 cells, a murine leukemia cell line, grown in RPMI 1640 supplemented with 5% fetal bovine serum and gentamicin ([…]). Drug dilutions are prepared in the appropriate solvent and 20 µl of each dilution are added to 24-well Linbro tissue culture plates, followed by the addition of 2.0 ml of cell suspension containing 3 x 10^4 cells per ml. Solvent and medium controls are included in each test. After incubation at 37°C forthree days in 5% C02, the contents of each well are removed and the cells counted in a ZBI Coulter counter. Percent growth are calculated relative to the controls and the levels of drug activity are expressed as ID50 in moles per liter.

HCT-8 cells = assay: in vitro proliferating human colon adenocarcinoma (HCA) cell screen; format: cell-based
Experimental: One test protocol is the in vitro proliferating human colon adenocarcinoma (HCA) cell screen. In this test, HCT-8 cells (HCA cell line received from Yale University) are trypsinized using trypsin-EDTA. A single cell suspension is achieved by passing the cells through a 26 gauge needle with a 20 cc syringe. A cell suspension is prepared using RPMI 1640 + 10% FCS + 50) g/ml gentamicin sulfate with a cell concentration of approximately 30,000 cells/ml. The cell suspension is dispensed in Linbro 24-well plates; 1 ml/well. The plates are incubated for approximately 48 hours at 37°C in a 5% C02 atmosphere. At this time test compounds are added in the appropriate concentration. Five µl of the 200 µg/ml stock solution is added to each well in primary test. Ten µl of the appropirate dilution is added to each well for a titration test. The plates are re-incubated an additional 60 to 65 hours at 37°C in a 5% C02 atmosphere. The cells are lysed using a mix of cationic surfactant, glacial acetic acid, and sodium chloride. Two ml of the lysed cell suspension from each well is added to 8 ml of diluent. The number of nuclei is determined using a Coulter counter (ZBI model), and a percent growth for each drug concentration is calculated. From this, an ID50 molar concentration of a compound (that results in 50% inhibition of growth) is determined.

[2] = system: Aerobacter aerogenes 0126; assay: in vitro antibacterial/antifungal (ABF) agar-disk diffusion test; format: cell-based; conditions: Klebsiella aerogenes, 0.1 mg/ml, read-out: ABF Zone Diameter (cont. in mg/ml) A. Aero-genes
Experimental: (§1) Still another test protocol is the in vitro antibacterial/antifungal (ABF) test. Compounds are tested for antimicrobial activity in an agar-disk diffusion assay, a standard microbiological technique for testing antibiotics'. After incubation of each culture with a test compound, a zone of inhibition is determined. The zone diameter (mm) of active compounds ranges from a minimum of 13.5 mm to as high as 60 mm, with a greater diameter reflecting higher activity. For convenience, values are reported for two gram-negative bacteria (Aerobacter aerogenes 0126 and Escherichia coli 04863), two gram-positive bacteria (Bacillus subtilis 04555 and Streptococcus faecalis 05045 utilizing AM-09 medium), and one mycelial fungus (Penicillium avellaneum M2988).

Bacillus subtilis 04555 = assay: as above; format: cell-based; conditions: 0.1 mg/ml, read-out: ABF Zone Diameter (cont. in mg/ml) B. Sub-tilis
Experimental: as §1

Escherichia coli 04863 = assay: as above; format: cell-based; conditions: 0.1 mg/ml, read-out: ABF Zone Diameter (cont. in mg/ml) E. Coli
Experimental: as §1

[3] = system: Streptococcus faecalis 05045; assay: as above; format: cell-based; conditions: Enterococcus faecalis, AM-09 medium, 3 mg/ml, read-out: ABF Zone Diameter (cont. in mg/ml) S. Fae-calis
Experimental: as §1

[4] = system: Penicillium avellaneum M2988; assay: as above; format: cell-based; conditions: Hamigera avellanea, 3 mg/ml, read-out: ABF Zone Diameter (cont. in mg/ml) P. Avell-aneum
Experimental: as §1

[5] = Table 2, three days incubation, read-out: L1210 in vitro IC50
[6] = Table 2, 60 to 65 hours with compound, read-out: HCA—3 in vitro IC50
[7] = Table 1, three days incubation, 50% inhibition of growth, read-out: L1210 in vitro ID50
[8] = Table 1, 60 to 65 hours with compound, 50% inhibition of growth, read-out: HCA—3 in vitro ID50

CCN(CC)CCn1nc2c3c(c(NCCNCCO)ccc31)Sc1ccc(OC)cc1-2 [2-[[2-[[2-(2-(Diethylamino)ethyl]-9-methoxy-2H[1]benzothiopyrano[4,3,2-cd]indazol-5-yl]amino]ethyl]amino]ethanol]
response vs control in vivo at 25 mg/kg [1]: 177%
IC50 (L1210 cells; [5]): 200 nM
IC50 (HCT-8 cells; [6]): 230 nM

CN(C)CCCn1nc2c3c(c(NCCN)ccc31)Sc1ccccc1-2 [(CH2)3N(CH3)2 / NHCH2CH2NH2, N-[2-[3-(dimethylamino)propyl]-2H[1]benzothiopyrano[4,3,2-cd]indazol-5-yl]-1,2-ethanediamine]
response vs control in vivo at 6.25 mg/kg [1]: 185%
response vs control in vivo at 12.5 mg/kg [1]: 298%
IC50 (L1210 cells; [7]): 29 nM
IC50 (HCT-8 cells; [8]): 130 nM

CN(C)CCCn1nc2c3c(c([N+](=O)[O-])ccc31)Sc1ccccc1-2 [CH2CH2CH2N(CH3)2 / NO2, N,N dimethyl-5-nitro-2H[1]benzothiopyrano[4,3,2-cd]indazole-2-propanamine]
response vs control in vivo at 25 mg/kg [1]: 121%
response vs control in vivo at 100 mg/kg [1]: 141%
IC50 (L1210 cells; [7]): 190 nM
IC50 (HCT-8 cells; [8]): 210 nM

CCN(CC)CCn1nc2c3c(c(N)ccc31)Sc1ccc(O)cc1-2 [CH2CH2N(C2H5)2 / NH2 / 9-OH, 5-Amino-2-[2-(diethylamino)ethyl]-2H[1]benzothiopyrano[4,3,2-cd]indazol-9-ol]
response vs control in vivo at 6.25 mg/kg [1]: 238%
IC50 (L1210 cells; [5]): 12 nM
IC50 (HCT-8 cells; [6]): 28 nM

CCN(CC)CCn1nc2c3c(c(NCCCN)ccc31)Sc1ccccc1-2 [CH2CH2N(C2H5)2 / NHCH2CH2CH2NH2]
response vs control in vivo at 3.12 mg/kg [1]: 132%
response vs control in vivo at 6.25 mg/kg [1]: 142%
response vs control in vivo at 12.5 mg/kg [1]: 154%
response vs control in vivo at 25 mg/kg [1]: 169%
IC50 (L1210 cells; [7]): 290 nM
IC50 (HCT-8 cells; [8]): 880 nM

CCN(CC)CCn1nc2c3c(c(NCCN)ccc31)Sc1ccc(OC)cc1-2 [CH2CH2N(C2H5)2 / NHCH2CH2NH2 / 9-OCH3]
response vs control in vivo at 12.5 mg/kg [1]: 177%
IC50 (L1210 cells; [5]): 210 nM
IC50 (HCT-8 cells; [6]): 290 nM

CCN(CC)CCn1nc2c3c(c(NC(=O)CCl)ccc31)Sc1ccccc1-2 [CH2CH2N(C2H5)2 / NHCOCH2Cl, 2-Chloro-N-[2-[2-(diethylamino)ethyl]-2H[1]benzothiopyrano[4,3,2-cd]indazol-5-yl]acetamide]
response vs control in vivo at 25 mg/kg [1]: 124%
response vs control in vivo at 50 mg/kg [1]: 165%
IC50 (L1210 cells; [7]): 190 nM
IC50 (HCT-8 cells; [8]): 380 nM

CCN(CC)CCn1nc2c3c(c([N+](=O)[O-])ccc31)Sc1c(OC)ccc(OC)c1-2 [CH2CH2N(C2H5)2 / NO2 / 7,10-(OCH3)2, N,N-Diethyl-7,10-dimethoxy-5-nitro-2H[1]benzothiopyrano[4,3,2-cd]indazol-2-ethanamine]
IC50 (L1210 cells; [5]): 1300 nM
IC50 (HCT-8 cells; [6]): 500 nM

CCN(CC)CCn1nc2c3c(c([N+](=O)[O-])ccc31)Sc1c(O)ccc(O)c1-2 [CH2CH2N(C2H5)2 / NO2 / 7,10-(OH)2]
IC50 (L1210 cells; [5]): 1700 nM

CCN(CC)CCn1nc2c3c(c([N+](=O)[O-])ccc31)Sc1c(OC)ccc(O)c1-2 [CH2CH2N(C2H5)2 / NO2 / 7-OCH3, 10-OH, 2-[2-(diethylamino)-ethyl]-7-methoxy-5-nitro-2H[1]benzothiopyrano[4,3,2-cd]indazol-10-ol]
IC50 (L1210 cells; [5]): 1000 nM
IC50 (HCT-8 cells; [6]): 420 nM

CCN(CC)CCn1nc2c3c(c(NCCN4CCOC4=O)ccc31)Sc1ccc(OC)cc1-2 [CH2CH2N(C2H5)2 / [drawing] / 9-OCH3, 3-[2-[[2-[2-(Diethylamino)ethyl]-9-methoxy-2H[1]benzothiopyrano[4,3,2-cd]indazol-5-yl]amino]ethyl]-2-oxazolidinone]
response vs control in vivo at 100 mg/kg [1]: 220%
IC50 (HCT-8 cells; [6]): 1000 nM

CCN(CC)CCn1nc2c3c(c(NCCN4CCOC4=O)ccc31)Sc1ccc(O)cc1-2 [CH2CH2N(C2H5)2 / [drawing] / 9-OH, 3-[2-[[2-[2-(diethylamino)ethyl]-9-hydroxy-2H[1]benzothiopyrano[4,3,2-cd]indazol-5-yl]amino]ethyl]-2-oxazolidinone]
response vs control in vivo at 12.5 mg/kg [1]: 175%
IC50 (L1210 cells; [5]): 5.5 nM
IC50 (HCT-8 cells; [6]): 24 nM

NCCn1nc2c3c(c([N+](=O)[O-])ccc31)Sc1ccccc1-2 [CH2CH2NH2 / NO2 / 199—203, 5-Nitro-2H[1]benzothiopyrano[4,3,2-cd]indazole-2-ethanamine]
zone of inhibition at 100 µg/mL [2]: 18 mm
zone of inhibition at 100 µg/mL (Bacillus subtilis 04555): 17 mm
zone of inhibition at 100 µg/mL (Escherichia coli 04863): 15 mm
zone of inhibition at 3000 µg/mL [3]: 0 mm
zone of inhibition at 3000 µg/mL [4]: 0 mm
IC50 (HCT-8 cells; [8]): 200 nM

NCCn1nc2c3c(c([N+](=O)[O-])ccc31)Sc1ccccc1-2 [CH2CH2NH2 / NO2 / >300]
response vs control in vivo at 12.5 mg/kg [1]: 136%
response vs control in vivo at 25 mg/kg [1]: 187%

CCNCCn1nc2c3c(c([N+](=O)[O-])ccc31)Sc1ccccc1-2 [CH2CH2NHC2H5 / NO2 / C17H16N4O2S·HCl]
response vs control in vivo at 12.5 mg/kg [1]: 187%
IC50 (L1210 cells; [7]): 24 nM
IC50 (HCT-8 cells; [8]): 140 nM

CCNCCn1nc2c3c(c(N)ccc31)Sc1ccccc1-2 [CH2CH2NHC2H5 / NO2 / C17H18N4S·2HCl]
response vs control in vivo at 12.5 mg/kg [1]: 188%
IC50 (L1210 cells; [7]): 71 nM
IC50 (HCT-8 cells; [8]): 300 nM

CCN(CC)CCn1nc2c3c(c(N)ccc31)Sc1ccc(OC)cc1-2 [CH2CH2NHCH2CH2OH / NH2 / 9-OCH3, 5-Amino-N,N-diethyl-9-methoxy-2H[1]benzothiopyrano[4,3,2-cd]indazole-2-ethanamine]
response vs control in vivo at 50 mg/kg [1]: 154%
IC50 (L1210 cells; [5]): 1600 nM

CCN(CC)CCNc1ccc2c3c(nn2CCNCCO)-c2ccccc2Sc13 [CH2CH2NHCH2CH2OH / NHCH2CH2N(C2H5)2, 2-[[2-[5-[[2-(Diethylamino)ethyl]amino]-2H[1]benzothiopyrano[4,3,2-cd]indazol-2-yl]ethyl]amino]ethanol]
response vs control in vivo at 3.12 mg/kg [1]: 134%
response vs control in vivo at 6.25 mg/kg [1]: 137%
response vs control in vivo at 12.5 mg/kg [1]: 135%
response vs control in vivo at 25 mg/kg [1]: 147%
IC50 (L1210 cells; [7]): 240 nM
IC50 (HCT-8 cells; [8]): 450 nM

CCN(CC)CCn1nc2c3c(c([N+](=O)[O-])ccc31)Sc1ccc(OC)cc1-2 [CH2CH2NHCH2CH2OH / NO2 / C20H22N4O3S, N,N-Diethyl-9-methoxy-5-nitro-2H[1]benzothiopyrano[4,3,2-cd]indazole-2-ethanamine]
response vs control in vivo at 12.5 mg/kg [1]: 142%
response vs control in vivo at 25 mg/kg [1]: 209%
IC50 (L1210 cells; [5]): 640 nM
